In article PMC7823652 (Viruses, 2020):
Where two headings read alike, the source gives them in different places.

Experiments:
[1] = system: ZIKV; assay: Image-based phenotypic antiviral screen in ZIKV-infected U87 cells; format: cell-based, Zika virus (strain H/PF/2013); details: for Infected Cells (U87, ZIKV) / Viral Titer (ZIKV): screen, U87 cells; for inhibition at 10 µM: Zika virus, U-87 MG
[2] = Screen cytotoxicity by nuclei count in ZIKV-infected U87 cells; format: cell-based; details: human; for viability at 48 h, 10 µM / viability at 10 µM: ZIKV-infected U87 cells; for viability at 48 h, 10 µM: ZIKV MOI 10, compound 10 µM, nuclei count relative to DMSO; for viability at 10 µM: screen
[3] = system: HAZV; assay: microbe, parasite or virus in culture; format: cell-based, Hazara virus (isolate JC280); details: for inhibition at 10 µM: Hazara virus, SW13, 24 h; for Infected Cells (SW13, HAZV) / Viral Titer (HAZV): screen, SW13 cells
[4] = system: ZIKV; assay: Antiviral dose-response in ZIKV-infected U87 cells (infected cells, viral titer); format: cell-based, Zika virus (strain H/PF/2013); details: for EC50: U87, ZIKV MOI 1, 48 h
[5] = system: ZIKV; assay: Antiviral dose-response in ZIKV-infected Vero cells; format: cell-based, Zika virus (strain H/PF/2013); details: Zika virus, 48 h
[6] = system: U87 cells; assay: Cell viability by nuclei count in ZIKV-infected U87 cells; format: cell-based, Human
[7] = system: Vero cells; assay: Cell viability by nuclei count in ZIKV-infected Vero cells; format: cell-based, African Green Monkey
[8] = Cell viability assay (Resazurin), uninfected U87 cells; format: cell-based, Human; details: human, read-out: Viability CC50 [µM] (95%-CI); for CC50 at 24 h: uninfected U87, 24 h; for CC50 at 48 h: uninfected U87, 48 h; for CC50 at 72 h: uninfected U87, 72 h
[9] = system: ZIKV; assay: Time-of-addition assay in ZIKV-infected U87 cells; format: cell-based, Zika virus (strain H/PF/2013)
[10] = in vitro; details: human
[11] = system: ZIKV; assay: Time course of ZIKV replication in U87 cells (vRNA, infected cells, titer)
[12] = molecular target: hOGG1 (Homo sapiens, UniProt O15527); assay: hOGG1 IC50 (listed in supplementary data, method not described); format: biochemical
Chain of hOGG1 (O15527 whole entry): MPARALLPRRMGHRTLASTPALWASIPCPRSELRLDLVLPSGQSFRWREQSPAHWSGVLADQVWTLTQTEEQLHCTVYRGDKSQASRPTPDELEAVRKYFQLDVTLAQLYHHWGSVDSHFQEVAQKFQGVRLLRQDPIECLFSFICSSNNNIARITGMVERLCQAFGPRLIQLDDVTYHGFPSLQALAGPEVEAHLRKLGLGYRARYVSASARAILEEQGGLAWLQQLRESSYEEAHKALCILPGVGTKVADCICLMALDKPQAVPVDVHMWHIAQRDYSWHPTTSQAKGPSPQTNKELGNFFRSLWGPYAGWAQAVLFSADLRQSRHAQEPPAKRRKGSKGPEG

[13] = system: U87 cells; assay: Cell viability assay (Resazurin), uninfected U87 cells; format: cell-based, Human; details: for CC50: read-out: Viability CC50 [µM] (95%-CI)
[14] = system: ZIKV; assay: ZIKV infection (NS1 intensity) and viral titer in human cerebral organoids; format: cell-based, Zika virus (strain H/PF/2013); details: ZIKV 2 × 10^4 particles/organoid, 5 μM, all timepoints, relative to DMSO
[15] = system: human brain organoids; assay: Viability and structure of ZIKV-infected human cerebral organoids; details: ZIKV 2 × 10^4 particles/organoid, 5 μM, 7 dpi and 10 dpi
[16] = U87, ZIKV MOI 10, 100 µM Ribavirin (positive control), 48 h
[17] = ZIKV MOI 10, 100 µM Ribavirin (positive control), 48 h
[18] = read-out: Inhibition of HAZV titer (%)
[19] = read-out: Inhibition of primary HAZV infection (%)
[20] = U87, ZIKV MOI 1, from 24 hpi and onwards
[21] = U87, ZIKV MOI 10, compound 10 µM, 48 h, relative to DMSO
[22] = ZIKV MOI 10, compound 10 µM, 48 h, relative to DMSO
[23] = U87, ZIKV MOI 10, compound 10 µM, 48 h, relative to DMSO, read-out: Inhibition of ZIKV titer (%)
[24] = U87, ZIKV MOI 10, compound 10 µM, 48 h, relative to DMSO, read-out: Inhibition of primary ZIKV infection (%)
[25] = Zika virus, U-87 MG, 48 h, read-out: Antiviral on primary infection IC50 [µM], ZIKV, U87, MOI 10, 48 h
[26] = Zika virus, U-87 MG, 48 h, read-out: Antiviral on titer (µM) IC50 [µM], ZIKV, U87, MOI 10, 48 h
[27] = Zika virus, U-87 MG, ZIKV NS1 staining, read-out: EC50 [μM] Infected cells
[28] = Zika virus, U-87 MG, end-point dilution assay, read-out: EC50 [μM] Viral titer
[29] = Homo sapiens, U-87 MG, 48 h, read-out: Viability (nuclei count) EC50 [µM]

NC(=O)c1ncn([C@@H]2O[C@H](CO)[C@@H](O)[C@H]2O)n1 [Ribavirin, reference compound]
Inhibition of ZIKV titer (%) [1, 16]: 63% | Inhibition of primary ZIKV infection (%) [1, 16]: 60% | Viral Titer (ZIKV) (%) [1, 16]: 37% | Infected Cells (U87, ZIKV) (%) [1, 17]: 40% | Infected Cells (U87, ZIKV) [1]: 40% | Viral Titer (ZIKV) [1]: 37% | viability at 48 h, 100 µM [2, 17]: 91% | inhibition at 10 µM [3, 18]: 98% | inhibition at 10 µM [3, 19]: 47% | Infected Cells (SW13, HAZV) [3]: 53% | Viral Titer (HAZV) [3]: 2% | IC50 ([4]; Zika virus, U-87 MG, 48 h, ZIKV, U87, MOI 1, 48 h, read-out: Antiviral on primary infection IC50): 60.7 µM | IC50 ([4]; Zika virus, U-87 MG, 48 h, ZIKV, U87, MOI 1, 48 h, read-out: Antiviral on titer (µM) IC50): 52.8 µM | IC50 ([4]; Zika virus, U-87 MG, 48 h, ZIKV, U87, MOI 10, 48 h, read-out: Antiviral on primary infection IC50): 59.2 µM | IC50 ([4]; Zika virus, U-87 MG, 48 h, ZIKV, U87, MOI 10, 48 h, read-out: Antiviral on titer (µM) IC50): 31.1 µM | IC50 ([5]; MOI 1, 48 h, read-out: Antiviral on primary infection IC50): 52.6 µM | IC50 ([5]; MOI 1, 48 h, read-out: Antiviral on titer (µM) IC50): 21 µM | IC50 ([5]; MOI 10, 48 h, read-out: Antiviral on primary infection IC50): 65.1 µM | IC50 ([5]; MOI 10, 48 h, read-out: Antiviral on titer (µM) IC50): 41 µM | EC50 ([6]; Homo sapiens, U-87 MG, ZIKV, U87, MOI 10, 48 h, read-out: Viability (nuclei count) EC50): > 200 µM | EC50 ([6]; ZIKV, U87, MOI 1, 48 h, read-out: Viability (nuclei count) EC50): > 200 µM | EC50 ([7]; Chlorocebus sabaeus, MOI 10, 48 h): > 200 µM | EC50 ([7]; MOI 1, 48 h): > 200 µM | CC50 at 24 h ([8]; uninfected U87 cells): > 300 µM | CC50 at 48 h ([8]; uninfected U87 cells): > 300 µM | CC50 at 72 h ([8]; uninfected U87 cells): > 300 µM | reduction of ZIKV titers, post-inoculation step ([9]; U87, ZIKV MOI 10, 100 μM Ribavirin for 24 h after inoculation): 80% | effect on viral titer, later steps (budding) ([9]; U87, ZIKV MOI 10, 100 μM Ribavirin from 22 h for 2 h): no effect | effect on viral titer, entry steps ([9]; U87, ZIKV MOI 10, 100 μM Ribavirin, pre-treatment and during inoculation): no effect | viability at 10 µM [10]: 99% | viability at 24 h, 10 µM [10]: 99% | intracellular vRNA levels ([11]; U87, ZIKV MOI 1, all timepoints (24, 48, 72 h)): reduced | ZIKV titers [11, 20]: reduced | extracellular vRNA [11, 20]: reduced

O=C(Nc1ccc(I)cc1)N1CCC(n2c(=O)[nH]c3cc(Cl)ccc32)CC1 [TH3289]
Viral Titer (ZIKV) (%) [1, 21]: 4% | Infected Cells (U87, ZIKV) (%) [1, 22]: 59% | inhibition at 10 µM [1, 23]: 96% | inhibition at 10 µM [1, 24]: 41% | Infected Cells (U87, ZIKV) [1]: 59% | Viral Titer (ZIKV) [1]: 4% | viability at 48 h, 10 µM ([2]; 48 h): 92% | viability at 10 µM [2]: 92% | inhibition at 10 µM [3, 18]: 95% | inhibition at 10 µM [3, 19]: 58% | Infected Cells (SW13, HAZV) [3]: 42% | Viral Titer (HAZV) [3]: 5% | IC50 [4, 25]: 2.8 µM | IC50 [4, 26]: 2.5 µM | EC50 [4, 27]: 2.8 µM | EC50 [4, 28]: 2.5 µM | EC50 [6, 29]: > 50 µM | CC50 at 24 h [8]: > 50 µM | CC50 at 48 h [8]: > 50 µM | CC50 at 72 h [8]: 34 µM | viability at 24 h, 10 µM [10]: 77%

O=C(Nc1ccc(I)cc1)N1CCC(n2c(=O)[nH]c3cc(C(F)(F)F)ccc32)CC1 [TH5264, N-(4-iodophenyl)-4-[2-oxo-5-(trifluoromethyl)-2,3-dihydro-1H-1,3-benzodiazol-1-yl]piperidine-1-carboxamide]
Viral Titer (ZIKV) (%) [1, 21]: 2% | Infected Cells (U87, ZIKV) (%) [1, 22]: 46% | inhibition at 10 µM [1, 23]: 98% | inhibition at 10 µM [1, 24]: 54% | Infected Cells (U87, ZIKV) [1]: 46% | Viral Titer (ZIKV) [1]: 2% | viability at 48 h, 10 µM ([2]; 48 h): 86% | viability at 10 µM [2]: 86% | IC50 [4, 25]: 2.7 µM | IC50 [4, 26]: 3.2 µM | EC50 [4, 27]: 2.7 µM | EC50 [4, 28]: 3.2 µM | EC50 [6, 29]: 26.7 µM | CC50 at 24 h [8]: > 50 µM | CC50 at 48 h [8]: > 50 µM | CC50 at 72 h [8]: 31.5 µM | viability at 24 h, 10 µM [10]: 94%

O=C(Nc1ccc(I)cc1)N1CCC(n2c(=O)[nH]c3c(Br)cccc32)CC1 [TH5487]
IC50 [12]: 0.142 µM | EC50 ([4]; ZIKV NS1 staining, read-out: EC50 [μM] Infected cells): 2.8 µM | EC50 ([4]; end-point dilution assay, read-out: EC50 [μM] Viral titer): 2 µM | IC50 ([4]; ZIKV, U87, MOI 10, 48 h, read-out: Antiviral on primary infection IC50): 2.8 µM | IC50 ([4]; ZIKV, U87, MOI 10, 48 h, read-out: Antiviral on titer (µM) IC50): 2 µM | EC50 ([6]; ZIKV, U87, MOI 10, 48 h, read-out: Viability (nuclei count) EC50): 35.2 µM | IC50 ([13]; U87, Resazurin, all measured time points (24, 48 or 72 h), read-out: IC50 (toxicity profile, cellular viability)): > 50 µM | CC50 ([13]; uninfected U87, 24 h): > 50 µM | CC50 ([13]; uninfected U87, 48 h): > 50 µM | CC50 ([13]; uninfected U87, 72 h): > 50 µM | reduction of ZIKV progeny particles produced by the organoids [14]: 60–70% | phenotypic rescue (retained structure of organoids) [15]: phenotypic rescue
